Measurements as given in PubChem BioAssay AID2060600 (Molecular Pharmacology Branch, DTP, NCI, 2025).
Values joined by “and” are separate entries in the source; they are usually repeats but may differ in a detail not shown here. Equal values may be shown once.

Test system: 996289-038-R-J1-PDC complex spheroid viability
Test: Anticancer human tumor 996289-038-R-J1-PDC patient-derived colon adenocarcinoma cell line growth inhibition [CLK]
Details: for viability, T/C: stronger effect = lower value
From the text: A high-throughput screen of multi-cell type tumor spheroids was designed to identify active combinations of […] and targeted small molecules. Complex spheroids include a stromal component modeled by human endothelial cells (HUVEC) and fibroblasts modeled by human mesenchymal stem cells (MSCs). The concentration ranges selected for each drug and investigational agent were based upon clinically achievable concentrations if the clinical Cmax of the agent was known.
Compounds. The drugs and investigational agents: cirtuvivint (SM08502; NSC835563), CC-671 (NSC850746), vemurafenib (NSC761431), tapotoclax (NSC804041), sotorasib (NSC818433), adagrasib (NSC831453), MRTX-1133 (NSC836407), BAY2416964 (NSC825713), copanlisib (NSC816437), inavolisib (NSC800729), abemaciclib (NSC768073), osimertinib (NSC779217), entinostat (NSC756642), eltanexor (KPT-8602, NSC794443), venetoclax (NSC766270), ceralasertib (NSC777638), bortezomib (NSC756655), olaparib (NSC753686), talazoparib (NSC767125), alisertib (NSC759677), peposertib (NSC802822), gemcitabine (NSC613327), 5-fluorouracil (NSC19893), SN-38 (NSC673596), oxaliplatin (NSC266046), paclitaxel (NSC125973), and doxorubicin (NSC123127), were obtained from the National Cancer Institute (NCI) Developmental Therapeutics Program Chemical Repository. The FDA-approved anticancer drug set is available from the Developmental Therapeutics Program at https://dtp.cancer.gov/organization/dscb/obtaining/available plates.htm. […] The stock solutions were prepared in dimethyl sulfoxide (DMSO, Sigma-Aldrich, St. Louis, MO, cat. D2650), except for the platinum complexes which were prepared in saline (Quality Biological, Gaithersburg, MD, cat. 114-055-101), at 800-fold the tested concentration and stored at -70 degrees C prior to their use. All drugs and investigational agents were tested over a range starting from a high concentration at or near the clinical Cmax and decreasing in half-log increments. If the clinical Cmax for an agent had not been determined, the highest concentration tested was 10 microM.
Cell Culture. All cells were maintained in an incubator at 37 degrees C and 5% CO2 with 95% humidity. The PDC lines were cultured according to standard operating procedures established by the NCI PDMR. Briefly, all PDCs were thawed and cultured in Matrigel-coated flasks prepared with a working solution of 1X Ham's F-12 nutrient mix, without supplementation (Invitrogen, Waltham, MA, cat. 11765054), 100 U/mL penicillin-streptomycin (Invitrogen, cat. 15140122), and 2.5% Matrigel (Corning Inc., Corning, NY, cat. 354248) for the first three passages. The 947758-054-R-J2-PDC line was cultured in 6B/Colon 1A media, which includes advanced DMEM/F-12 (Thermo Fisher Scientific, cat. 12634028), 10 mM HEPES (Thermo Fisher Scientific, cat. 15630080), 1X GlutaMAX supplement (Thermo Fisher Scientific, cat. 35050061), 0.1 mg/mL primocin (InvivoGen, cat. ant-pm-2), 10% defined fetal bovine serum, heat inactivated (HyClone Laboratories Inc., cat. SH30070.03HI), 1.25 mM N-Acetyl-L-cysteine (Sigma-Aldrich, cat. A9165), 10 mM nicotinamide (Sigma-Aldrich, cat. N0636), 1X B-27 supplement (Thermo Fisher Scientific, cat. 17504044), 1X N-2 supplement (Thermo Fisher Scientific, cat. 17502048), and 10 microM Y-27632 dihydrochloride (Tocris Bioscience, cat. 1254). The 876862-298-R-J1-PDC was cultured in 6E media, which includes all 6B/Colon 1A media components plus 50% L-WRN conditioned media (ATCC, cat. CRL-3276), 50 ng/mL recombinant human EGF recombinant protein (hEGF; Thermo Fisher Scientific, cat. PHG0311), 10 ng/mL recombinant human fibroblast growth factor 10 (hGFG-10; PeproTech, cat. 100-26), 1 ng/mL recombinant human fibroblast growth factor 2 (hFGF-2; PeproTech, cat. 100-18B), and 1 µM prostaglandin E2 (PGE2; Tocris, cat. 2296). The 227483-062-R1-J1-PDC line was cultured in Panc media, containing all 6E components except hFGF-2, with the addition of 500 nM SB-431542 (Selleckchem, cat. S1067) and 10 nM gastrin (Tocris, cat. 3006). […]

[1] = curve of first compound, second compound 0.0316 µM
[2] = curve of first compound, second compound 0.1 µM
[3] = curve of first compound, second compound 0.316 µM
[4] = curve of first compound, second compound 1 µM
[5] = curve of first compound, second compound 3.16 µM
[6] = curve of first compound, second compound 10 µM
[7] = second compound 0.0316 µM, first compound 0.0316 µM
[8] = second compound 0.0316 µM, first compound 0.1 µM
[9] = second compound 0.0316 µM, first compound 0.316 µM
[10] = second compound 0.0316 µM, first compound 1 µM
[11] = second compound 0.0316 µM, first compound 3.16 µM
[12] = second compound 0.0316 µM, first compound 10 µM
[13] = second compound 0.1 µM, first compound 0.0316 µM
[14] = second compound 0.1 µM, first compound 0.1 µM
[15] = second compound 0.1 µM, first compound 0.316 µM
[16] = second compound 0.1 µM, first compound 1 µM
[17] = second compound 0.1 µM, first compound 3.16 µM
[18] = second compound 0.1 µM, first compound 10 µM
[19] = second compound 0.316 µM, first compound 0.0316 µM
[20] = second compound 0.316 µM, first compound 0.1 µM
[21] = second compound 0.316 µM, first compound 0.316 µM
[22] = second compound 0.316 µM, first compound 1 µM
[23] = second compound 0.316 µM, first compound 3.16 µM
[24] = second compound 0.316 µM, first compound 10 µM
[25] = second compound 1 µM, first compound 0.0316 µM
[26] = second compound 1 µM, first compound 0.1 µM
[27] = second compound 1 µM, first compound 0.316 µM
[28] = second compound 1 µM, first compound 1 µM
[29] = second compound 1 µM, first compound 3.16 µM
[30] = second compound 1 µM, first compound 10 µM
[31] = second compound 3.16 µM, first compound 0.0316 µM
[32] = second compound 3.16 µM, first compound 0.1 µM
[33] = second compound 3.16 µM, first compound 0.316 µM
[34] = second compound 3.16 µM, first compound 1 µM
[35] = second compound 3.16 µM, first compound 3.16 µM
[36] = second compound 3.16 µM, first compound 10 µM
[37] = second compound 10 µM, first compound 0.0316 µM
[38] = second compound 10 µM, first compound 0.1 µM
[39] = second compound 10 µM, first compound 0.316 µM
[40] = second compound 10 µM, first compound 1 µM
[41] = second compound 10 µM, first compound 3.16 µM
[42] = second compound 10 µM, first compound 10 µM
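Note: spheroids exposed to the agents for 7 days before readout.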

CC(=O)O[C@H]1C(=O)[C@@]2(C)[C@H]([C@H](OC(=O)c3ccccc3)[C@]3(O)C[C@H](OC(=O)[C@H](O)[C@@H](NC(=O)c4ccccc4)c4ccccc4)C(C)=C1C3(C)C)[C@]1(OC(C)=O)CO[C@@H]1C[C@@H]2O
viability, T/C (compound 0.0316 µM): 94.2% and 106%
viability, T/C (compound 0.1 µM): 85.8% and 89.7%
viability, T/C (compound 0.316 µM): 68.7% and 72.4%
viability, T/C (compound 1 µM): 59.8% and 63.7%
viability, T/C (compound 3.16 µM): 58.6% and 73%
viability, T/C (compound 10 µM): 61.5% and 67.2%
IC50 (curve of compound): > 10000 nM

COc1ccc([C@@H](O)c2cc(-c3ncnc4cc(N5CCOCC5)ccc34)c(F)cc2Cl)nn1
viability, T/C (compound 0.0316 µM): 102%
viability, T/C (compound 0.1 µM): 92.7% and 88.9%
viability, T/C (compound 0.316 µM): 101% and 90.7%
viability, T/C (compound 1 µM): 93.3% and 87.7%
viability, T/C (compound 3.16 µM): 77.5% and 79.5%
viability, T/C (compound 10 µM): 50.1% and 52.1%
IC50 (curve of compound): > 10000 nM

COc1cccc2c1C(=O)c1c(O)c3c(c(O)c1C2=O)CC(O)(C(=O)CO)CC3OC1CC(N)C(O)C(C)O1 (configuration not stated)
viability, T/C (compound 0.0316 µM): 100% and 103%
viability, T/C (compound 0.1 µM): 87.1% and 86.2%
viability, T/C (compound 0.316 µM): 76.5% and 79.6%
viability, T/C (compound 1 µM): 59.4% and 62.6%
viability, T/C (compound 3.16 µM): 49% and 51.9%
viability, T/C (compound 10 µM): 35.5% and 36.7%
IC50 (curve of compound): 2650 nM and 3330 nM

C=CC(=O)N1CCN(c2nc(=O)n(-c3c(C)ccnc3C(C)C)c3nc(-c4c(O)cccc4F)c(F)cc23)C(C)C1 (configuration not stated) + CN1CCN(c2cc(C(=O)Nc3cc4cc(-c5cnn(C)c5)ccc4cn3)ccn2)CC1
IC50 [1]: > 10000 nM
IC50 [2]: > 10000 nM
IC50 [3]: > 10000 nM
IC50 [4]: < 31.6 nM
IC50 [5]: < 31.6 nM
IC50 [6]: < 31.6 nM
viability, T/C [7]: 112%
viability, T/C [8]: 111%
viability, T/C [9]: 111%
viability, T/C [10]: 104%
viability, T/C [11]: 114%
viability, T/C [12]: 109%
viability, T/C [13]: 97.5%
viability, T/C [14]: 102%
viability, T/C [15]: 91.6%
viability, T/C [16]: 103%
viability, T/C [17]: 102%
viability, T/C [18]: 99.3%
viability, T/C [19]: 80.5%
viability, T/C [20]: 73.1%
viability, T/C [21]: 74.2%
viability, T/C [22]: 82.5%
viability, T/C [23]: 85.3%
viability, T/C [24]: 77.7%
viability, T/C [25]: 8.05%
viability, T/C [26]: 7.07%
viability, T/C [27]: 9.28%
viability, T/C [28]: 8.41%
viability, T/C [29]: 10.3%
viability, T/C [30]: 6.56%
viability, T/C [31]: 1.21%
viability, T/C [32]: 1.63%
viability, T/C [33]: 1%
viability, T/C [34]: 1.24%
viability, T/C [35]: 1.69%
viability, T/C [36]: 1.89%
viability, T/C [37]: 0.33%
viability, T/C [38]: 1.03%
viability, T/C [39]: 0.3%
viability, T/C [40]: 0.75%
viability, T/C [41]: 0.42%
viability, T/C [42]: 1.33%

CCCS(=O)(=O)Nc1ccc(F)c(C(=O)c2c[nH]c3ncc(-c4ccc(Cl)cc4)cc23)c1F + CN1CCN(c2cc(C(=O)Nc3cc4cc(-c5cnn(C)c5)ccc4cn3)ccn2)CC1
IC50 [1]: > 10000 nM
IC50 [2]: > 10000 nM
IC50 [3]: 6170 nM
IC50 [4]: < 31.6 nM
IC50 [5]: < 31.6 nM
IC50 [6]: < 31.6 nM
viability, T/C [7]: 92.3%
viability, T/C [8]: 87.7%
viability, T/C [9]: 95%
viability, T/C [10]: 98%
viability, T/C [11]: 98.6%
viability, T/C [12]: 68.1%
viability, T/C [13]: 94.2%
viability, T/C [14]: 82%
viability, T/C [15]: 90.1%
viability, T/C [16]: 92%
viability, T/C [17]: 81.3%
viability, T/C [18]: 57.3%
viability, T/C [19]: 67.4%
viability, T/C [20]: 70.3%
viability, T/C [21]: 70.9%
viability, T/C [22]: 76.6%
viability, T/C [23]: 65.7%
viability, T/C [24]: 37.9%
viability, T/C [25]: 5.57%
viability, T/C [26]: 6.02%
viability, T/C [27]: 6.22%
viability, T/C [28]: 7.67%
viability, T/C [29]: 5.81%
viability, T/C [30]: 5.48%
viability, T/C [31]: 1.49%
viability, T/C [32]: 1.01%
viability, T/C [33]: 1.22%
viability, T/C [34]: 1.3%
viability, T/C [35]: 2.36%
viability, T/C [36]: 1.6%
viability, T/C [37]: 1.91%
viability, T/C [38]: 0.63%
viability, T/C [39]: 1.71%
viability, T/C [40]: 0.77%
viability, T/C [41]: 1.81%
viability, T/C [42]: 0.48%

COC1C=CCC(C)C(C)S(=O)(=O)NC(=O)c2ccc3c(c2)N(CC2CCC21)CC1(CCCc2cc(Cl)ccc21)CO3 (configuration not stated) + CN1CCN(c2cc(C(=O)Nc3cc4cc(-c5cnn(C)c5)ccc4cn3)ccn2)CC1
IC50 [1]: 4530 nM
IC50 [2]: 2780 nM
IC50 [3]: 1470 nM
IC50 [4]: < 31.6 nM
IC50 [5]: < 31.6 nM
IC50 [6]: < 31.6 nM
viability, T/C [7]: 98.8%
viability, T/C [8]: 106%
viability, T/C [9]: 96.2%
viability, T/C [10]: 79.5%
viability, T/C [11]: 60.4%
viability, T/C [12]: 30.1%
viability, T/C [13]: 93.3%
viability, T/C [14]: 86.1%
viability, T/C [15]: 78.8%
viability, T/C [16]: 78%
viability, T/C [17]: 45.6%
viability, T/C [18]: 27.7%
viability, T/C [19]: 60.6%
viability, T/C [20]: 74.7%
viability, T/C [21]: 63.6%
viability, T/C [22]: 53.9%
viability, T/C [23]: 39.6%
viability, T/C [24]: 21%
viability, T/C [25]: 7.76%
viability, T/C [26]: 8.39%
viability, T/C [27]: 6.69%
viability, T/C [28]: 4.97%
viability, T/C [29]: 4.86%
viability, T/C [30]: 2.21%
viability, T/C [31]: 1.75%
viability, T/C [32]: 0.92%
viability, T/C [33]: 1.25%
viability, T/C [34]: 1.45%
viability, T/C [35]: 1.53%
viability, T/C [36]: 0.93%
viability, T/C [37]: 1.98%
viability, T/C [38]: 1.21%
viability, T/C [39]: 0.68%
viability, T/C [40]: 0.74%
viability, T/C [41]: 0.47%
viability, T/C [42]: 1.7%
